Measurements as given in patent US11998033B2, “Sweetening compositions” (PepsiCo, Inc., priority 2016, dated 2024).
Read-outs that look alike come from different tables or passages of the source. Values belong to the compound of their own block, whether it stands above or below them.

What was measured:
[1] = type: physicochemical
Description: (§1) For the examples below, turbidity is reported in NTUs and was measured at 20±2° C. using a Hach 2100AN Turbidimeter. The instrument was calibrated using a STABLCAL Calibration Kit including samples having turbidities ranging from 0.1 NTU to 7500 NTU. Test samples were measured in a Turbidimeter glass vial and NTU values were read after a 30 second stabilization period.
Varying concentrations of rebaudioside A, rebaudioside C, rebaudioside B, and rebaudioside M were then added individually to the stevioside/rebaudioside D solutions at 70° C. The solutions were allowed to cool to room temperature. Each sample's appearance was noted and turbidity measurements were taken to track solubility.

[2] = type: physicochemical; remark: listed apart in the source
Description: as §1
Suspensions of 1 weight percent rebaudioside D in water at ambient temperature were prepared in five individual beakers. Rebaudioside A, stevioside, rebaudioside C, and rebaudioside M were added to each of the first four beakers, respectively, such that that the resulting weight ratio of rebaudioside D to the added steviol glycoside was 1:5. As a control, no additional steviol glycoside was added to the fifth beaker.
After stirring, turbidity measurements were taken from each of the five samples and graphed. According to the turbidity measurements, rebaudiosides A and M had no effect on rebaudioside D solubility.

[3] = Example 9: HPLC analysis of aqueous filtrate after centrifugation and filtration; type: physicochemical; details: rebaudioside B added at 0.4% to stevioside/rebaudioside D solution, centrifuged, filtered
Description: To confirm that the cloudiness observed in samples comprising rebaudioside B was due to the rebaudioside B itself, a solution of stevioside and rebaudioside D was prepared and rebaudioside B was added at a concentration of 0.4% to form a cloudy suspension. The sample was centrifuged and filtered and the aqueous filtrate was analyzed by HPLC. […] Thus, the cloudiness observed with the addition of rebaudioside B was due to the insolubility of rebaudioside B itself, and not due to the degradation of the rebaudioside D/stevioside complex.

[4] = type: physicochemical; remark: listed apart in the source
Description: Rebaudioside D has a better sugar character and taste profile than Rebaudioside A, but only about 200 ppm Rebaudioside D can be solubilized in water at 23° C. after about 30 minutes stirring. While up to about 450 ppm rebaudioside can be solubilized after extended stirring, the amount of time required to prepare these higher concentration rebaudioside D solutions is impractical on a commercial scale. Similarly, while an 8000 ppm aqueous rebaudioside D solution can be prepared by heating rebaudioside D in water to nearly 100° C. for two hours, cooling the solution results in recrystallization, making the solution impractical to work with on a commercial manufacturing scale.
For example, in certain embodiments, rebaudioside D solubility can be increased 50 fold, for example, from about 200 ppm (0.02 weight percent) up to about 10,000 ppm (1 weight percent), when a 1 weight percent rebaudioside D suspension is combined with sufficient stevioside to produce a 50,000 ppm (5 weight percent) steviol glycoside solution. In other embodiments, even greater increases in rebaudioside D solubility can be observed.

[5] = Example 1: room temperature rebaudioside D solubility (turbidity); type: physicochemical; details: 0.02 to 1.5 weight percent, ambient temperature, FIG. 1
Description: as §1
Rebaudioside D was added to a number of beakers in increasing concentrations (0.02 weight percent, 0.04 weight percent, 0.1 weight percent, 0.5 weight percent, 1 weight percent, and 1.5 weight percent) at ambient temperature. Turbidity measurements were taken to track solubility in the various samples and the results were plotted (FIG. 1).

[6] = Example 2: rebaudioside D solubility at elevated temperatures (turbidity); type: physicochemical
Description: as §1
The samples prepared in Example 1 were heated to 70° C. and turbidity was measured again. At 70° C., the 0.5 weight percent rebaudioside D sample was soluble. But the 1 and 1.5 weight percent rebaudioside D samples continued to show maximum turbidity (about 12,000 NTU).

[7] = Example 8: effect of temperature on solubility (appearance, turbidity); type: physicochemical
Description: as §1
Aqueous samples containing the amounts of rebaudioside D and stevioside listed in Table 3 were prepared by combining the noted amounts of rebaudioside D and stevioside in water. The samples were then warmed to the temperatures noted in the table.
The appearance of all the samples prepared as above was noted and turbidity measurements were taken to track solubility.

[8] = Example 4: temperature and low shear mixing (turbidity, HPLC of supernatant); type: physicochemical
Description: This study was conducted with a 5:1 mixture (weight/weight) of rebaudioside A and rebaudioside D and a 5:1 mixture (weight/weight) of a rebaudioside A composition and rebaudioside D, wherein the rebaudioside A composition included 30 weight percent stevioside.
The described blends were individually combined with water to produce compositions having rebaudioside D concentrations of 1.4 weight percent based on the total mass of the mixture, including water. The mixtures were then mixed under low shear for 10 minutes at ambient temperature (21° C.). A 100 g sample was removed and centrifuged, and the resulting supernatant was analyzed for turbidity and rebaudioside A and D concentration (HPLC).
The mixtures were then warmed to 45° C. and mixed for 10 minutes. Another 100 g sample was removed and analyzed as described above.
The mixtures were finally warmed to 65° C. and mixed for 10 minutes. Another 100 g sample was removed an analyzed as described above.
This experiment was repeated with 10:1 mixtures of the compositions described above, wherein the final rebaudioside D concentration in each of the compositions was 1.43 weight percent, based on the total mass of the composition, including water.

effect of added steviol glycoside on rebaudioside D solubility [2]: no effect
Compound: C=C1C[C@@]23CC[C@H]4[C@@](C)(CCC[C@@]4(C)C(=O)O[C@@H]4O[C@H](CO)[C@@H](O)[C@H](O[C@@H]5O[C@H](CO)[C@@H](O)[C@H](O)[C@H]5O)[C@H]4O[C@@H]4O[C@H](CO)[C@@H](O)[C@H](O)[C@H]4O)[C@@H]2CC[C@]1(O[C@@H]1O[C@H](CO)[C@@H](O)[C@H](O[C@@H]2O[C@H](CO)[C@@H](O)[C@H](O)[C@H]2O)[C@H]1O[C@@H]1O[C@H](CO)[C@@H](O)[C@H](O)[C@H]1O)C3 [rebaudioside M]
effect of adding the steviol glycoside on rebaudioside D's solubility [1]: does not affect rebaudioside D's solubility

turbidity ([2]; 1 weight percent rebaudioside D in water, ambient temperature, rebaudioside D to added steviol glycoside 1:5 by weight, FIG. 3): about 1000 NTU
Compound: rebaudioside C
effect of adding the steviol glycoside on rebaudioside D's solubility [1]: does not affect rebaudioside D's solubility

effect of added steviol glycoside on rebaudioside D solubility [2]: clear mixture
Compound: C=C1C[C@@]23CC[C@H]4[C@@](C)(CCC[C@@]4(C)C(=O)O[C@@H]4O[C@H](CO)[C@@H](O)[C@H](O)[C@H]4O)[C@@H]2CC[C@]1(O[C@@H]1O[C@H](CO)[C@@H](O)[C@H](O)[C@H]1O[C@@H]1O[C@H](CO)[C@@H](O)[C@H](O)[C@H]1O)C3 [stevioside]

share of the amount initially added contained in the aqueous filtrate [3]: 65%
solubility [1]: insoluble
appearance after adding the steviol glycoside ([1]; added at or over 0.2% to stevioside/rebaudioside D solution): cloudy solution
Compound: rebaudioside B

aqueous rebaudioside D solution that can be prepared by heating [4]: 8000 ppm
solubility in water at room temperature [5]: insoluble
solubility in water ([6]; 0.5 weight percent sample at 70° C.): soluble
turbidity ([6]; 1 and 1.5 weight percent samples at 70° C.): about 12,000 NTU
solubility of rebaudioside D ([7]; concentration of 0.1%, 20° C., even up to a 4:1 ratio of stevioside to rebaudioside D): insoluble
Compound: C=C1C[C@@]23CC[C@H]4[C@@](C)(CCC[C@@]4(C)C(=O)O[C@@H]4O[C@H](CO)[C@@H](O)[C@H](O)[C@H]4O[C@@H]4O[C@H](CO)[C@@H](O)[C@H](O)[C@H]4O)[C@@H]2CC[C@]1(O[C@@H]1O[C@H](CO)[C@@H](O)[C@H](O[C@@H]2O[C@H](CO)[C@@H](O)[C@H](O)[C@H]2O)[C@H]1O[C@@H]1O[C@H](CO)[C@@H](O)[C@H](O)[C@H]1O)C3 [rebaudioside D]
solubility of rebaudioside D at 70° C. and on cooling ([7]; all four concentrations of rebaudioside D below 0.4): dissolved at 70° C., but precipitated from solution when cooled unless stevioside was present

effect of added steviol glycoside on rebaudioside D solubility [2]: no effect
Compound: C=C1C[C@@]23CC[C@H]4[C@@](C)(CCC[C@@]4(C)C(=O)O[C@@H]4O[C@H](CO)[C@@H](O)[C@H](O)[C@H]4O)[C@@H]2CC[C@]1(O[C@@H]1O[C@H](CO)[C@@H](O)[C@H](O[C@@H]2O[C@H](CO)[C@@H](O)[C@H](O)[C@H]2O)[C@H]1O[C@@H]1O[C@H](CO)[C@@H](O)[C@H](O)[C@H]1O)C3 [rebaudioside A]
effect of adding the steviol glycoside on rebaudioside D's solubility [1]: does not affect rebaudioside D's solubility
effect on solubility of rebaudioside D ([8]; 5:1 mixture with rebaudioside D, 1.4 weight percent rebaudioside D, low shear 10 minutes, at each of 21° C., 45° C. and 65° C.): neither rebaudioside A nor the rebaudioside A/stevioside composition including 30 weight percent stevioside enhanced the solubility of rebaudioside D
effect on solubility of rebaudioside D ([8]; 10:1 mixture with rebaudioside D, 1.43 weight percent rebaudioside D, low shear): did not enhance the solubility of rebaudioside D
